Laboratory results as given in paper PMC4543647, “Structural and Functional Analysis of BipA, a Regulator of Virulence in Enteropathogenic Escherichia coli” (The Journal of Biological Chemistry, 2015).
Like-named read-outs stand apart in the source and are kept apart here.

Key:
[1] = target: T1, BipA (TypA or YihK) (Escherichia coli, UniProt P0DTT0); assay: isothermal titration calorimetry; crystal structure […] A; format: binding
[2] = target: T1, BipA (TypA or YihK); assay: as above; format: binding; conditions: read-out: Ka (converted)

T1 sequence (P0DTT0 whole entry): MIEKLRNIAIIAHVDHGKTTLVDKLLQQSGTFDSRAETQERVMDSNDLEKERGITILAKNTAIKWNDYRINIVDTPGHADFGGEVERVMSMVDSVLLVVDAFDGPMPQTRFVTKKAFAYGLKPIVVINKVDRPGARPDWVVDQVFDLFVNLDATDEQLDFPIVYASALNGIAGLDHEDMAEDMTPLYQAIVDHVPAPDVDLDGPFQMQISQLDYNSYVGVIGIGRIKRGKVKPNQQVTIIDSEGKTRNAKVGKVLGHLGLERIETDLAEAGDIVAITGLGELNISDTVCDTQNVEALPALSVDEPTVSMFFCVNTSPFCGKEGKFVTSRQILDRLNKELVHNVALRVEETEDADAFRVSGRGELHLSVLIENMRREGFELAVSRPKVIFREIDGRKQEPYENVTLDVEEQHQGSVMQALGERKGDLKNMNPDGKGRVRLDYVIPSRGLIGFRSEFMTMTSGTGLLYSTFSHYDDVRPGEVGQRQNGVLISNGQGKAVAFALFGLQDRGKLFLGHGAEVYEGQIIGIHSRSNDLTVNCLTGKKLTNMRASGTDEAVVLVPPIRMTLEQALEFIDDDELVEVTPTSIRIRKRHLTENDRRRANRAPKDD

Row | Compound | Kd [1] | Kd [2]
1 | Nc1nc2c(ncn2[C@@H]2O[C@H](COP(=O)(O)OP(=O)(O)O)[C@@H](OP(=O)(O)OP(=O)(O)O)[C@H]2O)c(=O)[nH]1 [ppGpp, guanosine-3′, 5′-bis pyrophosphate] | 41.7 µM | 
2 | Nc1nc2c(ncn2[C@@H]2O[C@H](COP(=O)(O)OP(=O)(O)O)[C@@H](O)[C@H]2O)c(=O)[nH]1 [GDP] |  | 14.5 µM
